The source of these data is patent US20060004029A1, “Nitrogen-containing aromatic derivatives” (priority 2003, published 2006).

For assay [1], the system named is Human Umbilical Vein Endothelial Cells (HUVECs). In words: Inhibition against sandwich tube formation by vascular endothelial cells, FGF2-stimulated. In kind it is cell-based. As to conditions: HUVEC, 20 ng/ml FGF2 and 10 ng/ml EGF, 4th day after addition. The procedure:
(§1) Human Umbilical Vein Endothelial Cells (HUVECs) were isolated according to a reported method (Shinseikagaku Jikken Koza [New Biochemistry Experiment Lectures], “Saibo Baiyo Gijutsu” [Cell Culturing Techniques], p. 197-202), • and were cultured in a 5% CO2 incubator (37° C.) using EGM-2 medium (purchased from Clonetics Corp.) until the cells reached confluency.
(§2) An ice-cooled mixture of collagen: 5×RPMI 1640: reconstitution buffer (all purchased from Nitta Gelatin, Inc.) at 7:2:1 was dispensed at 0.4 ml into each well of a 24-well plate. After the solution was gelled by being stationed for 40 minutes in a 5% CO2 incubator (37° C.), HUVEC cell suspension was added at 0.4 ml to each well (using 1 to 1.2×10^5 cells, though the numbers of cells differ slightly according to the HUVEC lot), the HUVEC cell suspension being in human endothelial serum free medium (SFM, purchased from GIBCO BRL) containing added angiogenesis factors [20 ng/ml FGF2 (purchased from GIBCO BRL) and 10 ng/ml EGF (purchased from GIBCO BRL), or 25 ng/ml VEGF (purchased from Wako Pure Chemical Industries Co., Ltd.) and 10 ng/ml EGF, or 30 ng/ml HGF (purchased from R&D Co.) and 10 ng/ml EGF], and cultured overnight in a 5% CO2 incubator (37° C.). On the following day, the medium on the upper layer was aspirated off, and then 0.4 ml of an ice-cooled mixture of collagen: 5×RPMI 1640: reconstitution buffer (all purchased from Nitta Gelatin, Inc.) at 7:2:1 was superposed into each well prior to stationing for 4 hours in a 5% CO2 incubator (37° C.) for gelling. After adding 1.5 ml of an SFM solution containing each of the aforementioned angiogenesis factors and a diluted test substance onto the upper layer, culturing was performed in a 5% CO2 incubator (37° C.). Upon aspirating off the culture supernatant in each well on the 4th day after addition of the test substance, 0.4 ml of a 3.3 mg/ml MTT solution dissolved in PBS (purchased from Sigma Corp.) was added to each well and culturing was performed for approximately 2 hours in a 5% CO2 incubator (37° C.). The tubes formed in the collagen gel of each well were stained by MTT, the tube images were loaded into a computer (Macintosh), and the total length of the tubes was determined by image analysis software “MacScope” (purchased from Mitani Corp.). The ratio of the total length of the tubes formed in the well containing the test substance with respect to the total length of the tubes formed in the well containing no test substance was expressed as a percentage, and the concentration of each test substance required for 50% inhibition of tube formation (IC50) was determined from the ratio value.

For assay [2] the test system is unchanged. Description: Inhibition against sandwich tube formation by vascular endothelial cells, VEGF-stimulated. The class given is cell-based. As to conditions: HUVEC, 25 ng/ml VEGF and 10 ng/ml EGF, 4th day after addition. On the procedure:
as §1, §2

With `CCNC(=O)n1ccc2cc(Oc3ccnc(NC(=O)N4CCC(C)(O)CC4)c3)ccc21` [Example 78, 5-(2-(((4-Hydroxy-4-methylpiperidin-1-yl)carbonyl)amino)pyridin-4-yloxy)-1H-indole-1-carboxylic acid ethylamide], the IC50 in assay [1] is 450 nM; in assay [2] it was 3 nM.
